According to ChEMBL document CHEMBL1147815, “Stilbene-based anticancer agents: resveratrol analogues active toward HL60 leukemic cells with a non-specific phase mechanism” (Bioorg Med Chem Lett, 2006):
Calls of active or inactive are those of the source. The rule behind the calls is not given here.

How the values were obtained:
Type in all cases: functional, cell-based
[1] = test system: HL-60; assay: Induction of partial block of S phase in HL60 cells; settings: Homo sapiens
[2] = test system: HL-60; assay: Induction of apoptotic sub-G0/G1 phase in HL60 cells; settings: Homo sapiens
[3] = test system: HL-60; assay: Apoptosis inducing activity in human HL60 cells
[4] = test system: HL-60; assay: Antiproliferative activity against human HL60 cells
[5] = test system: HL-60; assay: Decrease of HL60 cells at G2/M phase; settings: Homo sapiens
[6] = test system: HL-60; assay: Decrease of HL60 cells at G0/G1 phase; settings: Homo sapiens
[7] = test system: HL-60; assay: Decrease of HL60 cells at S phase; settings: Homo sapiens

| SMILES | Activity [1] | Activity [2] | AC50 [3] [µM] | IC50 [4] [µM] | Activity [5] | Activity [6] | Activity [7] |
| --- | --- | --- | --- | --- | --- | --- | --- |
| COc1ccc(/C=C/c2cc(OC)cc(OC)c2)cc1 | Active | Active |  |  |  |  |  |
| COc1cc(/C=C/c2cc(OC)c(OC)c(OC)c2)cc(OC)c1 |  |  | 42 | 22 |  |  |  |
| COc1cccc(/C=C\c2cc(OC)cc(OC)c2)c1 |  |  | 5.4 | 2.8 |  |  |  |
| COc1ccc(/C=C\c2cc(OC)cc(OC)c2)cc1 [8Z-3,4',5-TRIMETHOXYSTILBENE] |  | Active | 0.24 | 0.15 | Active | Active | Active |
| Cc1ccc(/C=C/c2ccc(O)cc2)cc1C |  |  | 6 | 3.5 |  |  |  |
| O=[N+]([O-])c1ccc(/C=C/c2ccc(O)cc2)cc1 | Active | Active | 4.8 | 2.5 |  |  |  |
| COc1cccc(/C=C/c2cc(OC)cc(OC)c2)c1 |  |  | 70 | 37 |  |  |  |
| COc1cc(/C=C\c2cc(OC)c(OC)c(OC)c2)cc(OC)c1 | Active | Active | 2.6 | 1.8 |  |  |  |
